Data taken from patent US20140057915A1, “KINASE INHIBITORS” (TOPIVERT PHARMA LIMITED, priority 2012, published 2014).

Legend:
GSK3α = GSK3α (Homo sapiens, UniProt P49840); assay: GSK 3α enzyme inhibition (FRET), Method 1; format: biochemical; settings: Table 4a1
Protocol: (§1) The enzyme inhibitory activities of compounds disclosed herein are determined by FRET using synthetic peptides labelled with both donor and acceptor fluorophores (Z-LYTE, Invitrogen Ltd., Paisley, UK).
The following two assay variants are used for determination of GSK 3a inhibition.
The inhibitory activities of compounds of the invention against the GSK 3a enzyme isoform (Invitrogen), are evaluated by determining the level of activation/phosphorylation of the target peptide. The GSK3-α protein (500 ng/mL, 2.5 μL) is mixed with the test compound (2.5 μL at either 4 μg/mL, 0.4 μg/mL, 0.04 μg/mL, or 0.004 μg/mL) for 2 hr at RT. The FRET peptide (8 μM, 2.5 μL), which is a phosphorylation target for GSK3α, and ATP (40 μM, 2.5 μL) are then added to the enzyme/compound mixture and the resulting mixture incubated for 1 hr. Development reagent (protease, 5 μL) is added for 1 hr prior to detection in a fluorescence microplate reader (Varioskan® Flash, ThermoFisher Scientific).
(§2) In all cases, the site-specific protease cleaves non-phosphorylated peptide only and eliminates the FRET signal. Phosphorylation levels of each reaction are calculated using the ratio of coumarin emission (donor) over fluorescein emission (acceptor), for which high ratios indicate high phosphorylation and low ratios indicate low phosphorylation levels.

[1] = system: IL-8 release, d-U937 cells; assay: LPS-induced IL-8 release in d-U937 cells; format: cell-based; settings: Homo sapiens, dU937; Table 4c1; read-out: LPS Induced Release of Cytokine in d-U937 Cells, IL-8 IC50
Protocol: (§3) (a) LPS-Induced TNFα/IL-8 Release in d-U937Cells
U937 cells, a human monocytic cell line, are differentiated into macrophage-type cells by incubation with PMA (100 ng/mL) for 48 to 72 hr. Cells are pre-incubated with final concentrations of test compound for 2 hr and are then stimulated with LPS (0.1 μg/mL; from E. Coli: 0111:B4, Sigma) for 4 hr. […] The relative 50% effective concentration (REC50) is determined from the resultant concentration-response curve.

Syk = Syk (Homo sapiens, UniProt P43405); assay: Syk enzyme inhibition (FRET); format: biochemical; settings: Table 4a1
Protocol: as §1
(§4) The relevant enzyme (3000 ng/mL or 2000 ng/mL respectively, 2.5 μL) is incubated with the test compound (either 4 μg/mL, 0.4 μg/mL, 0.04 μg/mL, or 0.004 μg/mL, 2.5 μL each) for 2 hr at RT. The FRET peptides (8 μM, 2.5 μL), and appropriate ATP solutions (2.5 μL, 800 μM for c-Src, and 60 μM ATP for Syk) are then added to the enzymes/compound mixtures and incubated for 1 hr. Development reagent (protease, 5 μL) is added for 1 hr prior to detection in a fluorescence microplate reader (Varioskan® Flash, ThermoFisher Scientific).
as §2

d-U937 cells = assay: Cell viability: MTT assay; format: cell-based, human; settings: 1 μg/mL
Protocol: (l) The Effect of Test Compounds on Cell Viability: MTT Assay
Differentiated U937 cells are pre-incubated with each test compound (final concentration 1 μg/mL or 10 μg/mL in 200 μL media indicated below) under two protocols: the first for 4 hr in 5% FCS RPMI1640 media and the second in 10% FCS RPMI1640 media for 24 h. The supernatant is replaced with new media (200 μL) and MTT stock solution (10 μL, 5 mg/mL) is added to each well. After incubation for 1 hr the media are removed, DMSO (200 μL) is added to each well and the plates are shaken lightly for 1 hr prior to reading the absorbance at 550 nm. The percentage loss of cell viability is calculated for each well relative to vehicle (0.5% DMSO) treatment. Consequently an apparent increase in cell viability for drug treatment relative to vehicle is tabulated as a negative percentage.

cSrc = cSrc (Homo sapiens, UniProt P12931); assay: c-Src enzyme inhibition (FRET); format: biochemical; settings: Table 4a1
Sequence of cSrc (P12931 whole entry): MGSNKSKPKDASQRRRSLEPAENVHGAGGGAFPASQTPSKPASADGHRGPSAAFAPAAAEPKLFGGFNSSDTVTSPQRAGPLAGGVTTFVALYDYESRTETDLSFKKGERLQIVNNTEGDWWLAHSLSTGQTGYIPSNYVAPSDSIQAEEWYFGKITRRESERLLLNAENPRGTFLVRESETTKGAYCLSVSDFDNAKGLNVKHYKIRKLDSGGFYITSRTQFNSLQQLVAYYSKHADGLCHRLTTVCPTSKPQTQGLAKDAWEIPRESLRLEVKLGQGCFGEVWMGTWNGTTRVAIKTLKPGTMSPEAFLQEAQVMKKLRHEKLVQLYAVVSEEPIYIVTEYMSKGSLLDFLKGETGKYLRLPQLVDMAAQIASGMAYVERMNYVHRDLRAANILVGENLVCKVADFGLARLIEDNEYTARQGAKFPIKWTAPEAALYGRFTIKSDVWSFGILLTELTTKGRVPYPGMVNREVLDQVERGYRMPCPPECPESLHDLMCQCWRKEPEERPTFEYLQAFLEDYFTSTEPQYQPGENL
Protocol: as §1, §4, §2

[2] = system: ICAM-1 expression, BEAS2B cells; assay: Poly I:C-induced ICAM-1 expression in BEAS2B cells; format: cell-based; settings: Homo sapiens, BEAS-2B; read-out: Poly IC induced ICAM1 in BEAS2B, IC50
Protocol: (f) Poly I:C-Induced ICAM-1 Expression in BEAS2B Cells
Poly I:C is used in these studies as a simple, RNA virus mimic. Poly I:C-Oligofectamine mixture (1 μg/mL Poly I:C, ±2% Oligofectamine, 25 μL; Invivogen Ltd., San Diego, Calif., and Invitrogen, Carlsbad, Calif., respectively) is transfected into BEAS2B cells (human bronchial epithelial cells, ATCC). Cells are pre-incubated with final concentrations of test compounds for 2 hr and the level of ICAM1 expression on the cell surface is determined by cell-based ELISA. At a time point 18 hr after poly I:C transfection, cells are fixed with 4% formaldehyde in PBS (100 μL) and then endogenous peroxidase is quenched by the addition of washing buffer (100 μL, 0.05% Tween in PBS: PBS-Tween) containing 0.1% sodium azide and 1% hydrogen peroxide. Cells are washed with wash-buffer (3×200 μL). and after blocking the wells with 5% milk in PBS-Tween (100 μL) for 1 hr, the cells are incubated with anti-human ICAM-1 antibody (50 μL; Cell Signalling Technology, Danvers, Mass.) in 1% BSA PBS overnight at 4° C.
The cells are washed with PBS-Tween (3×200 μL) and incubated with the secondary antibody (100 μL; HRP-conjugated anti-rabbit IgG, Dako Ltd., Glostrup, Denmark). […] The ICAM-1 signal is detected by reading the absorbance at 450 nm against a reference wavelength of 655 nm using a spectrophotometer. The cells are then washed with PBS-Tween (3×200 μL) and total cell numbers in each well are determined by reading absorbance at 595 nm after Crystal Violet staining (50 μL of a 2% solution in PBS) and elution by 1% SDS solution (100 μL) in distilled water. The measured OD 450-655 readings are corrected for cell number by dividing with the OD595 reading in each well. The inhibition of ICAM-1 expression is calculated at each concentration of test compound by comparison with vehicle control.

[3] = system: TNFα release, d-U937 cells; assay: LPS-induced TNFα release in d-U937 cells; format: cell-based; settings: Homo sapiens, dU937; relative to 10 μg/mL BIRB796; Table 4c1; read-out: LPS Induced Release of Cytokine in d-U937 Cells, TNFα REC50
Protocol: as §3
U937 cells, a human monocytic cell line, are differentiated into macrophage-type cells by incubation with PMA (100 ng/mL) for 48 to 72 hr. Cells are pre-incubated with final concentrations of test compound for 2 hr and are then stimulated with LPS (0.1 μg/mL; from E. Coli: 0111:B4, Sigma) for 4 hr. The supernatant is collected for determination of TNFα and IL-8 concentrations by sandwich ELISA (Duo-set, R&D systems). […] The relative 50% effective concentration (REC50) is determined from the resultant concentration-response curve. The inhibition of IL-8 production is calculated at each concentration of test compound by comparison with vehicle control.

Sequence of GSK3α (P49840 whole entry): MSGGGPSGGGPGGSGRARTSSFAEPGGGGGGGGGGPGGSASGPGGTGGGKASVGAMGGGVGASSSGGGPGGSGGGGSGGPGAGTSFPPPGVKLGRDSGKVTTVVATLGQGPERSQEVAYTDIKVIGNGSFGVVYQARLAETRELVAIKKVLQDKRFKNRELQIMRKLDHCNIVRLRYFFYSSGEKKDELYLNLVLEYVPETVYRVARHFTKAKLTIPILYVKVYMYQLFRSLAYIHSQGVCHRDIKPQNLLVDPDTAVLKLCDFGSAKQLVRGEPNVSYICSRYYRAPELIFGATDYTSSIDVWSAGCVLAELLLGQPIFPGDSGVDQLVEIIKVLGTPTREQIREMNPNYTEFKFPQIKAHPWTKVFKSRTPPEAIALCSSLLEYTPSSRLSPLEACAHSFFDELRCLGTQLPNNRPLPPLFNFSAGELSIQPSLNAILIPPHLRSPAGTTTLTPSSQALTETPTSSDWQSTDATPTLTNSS

| Structure (SMILES) | IC50 (GSK3α) [nM] | IC50 [1] [nM] | IC50 (Syk) [nM] | Cell viability at time point in d-U937 cells, 4 h (d-U937 cells) | Cell viability at time point in d-U937 cells, 24 h (d-U937 cells) | IC50 (cSrc) [nM] | IC50 [2] [nM] | EC50 [3] [nM] |
| --- | --- | --- | --- | --- | --- | --- | --- | --- |
| COc1ccc(-n2nc(C(C)C)cc2NC(=O)Nc2ccc(Oc3ccnc(Nc4cc(OC)cc(C(=O)NCCN5CCOCC5)c4)c3)c3ccccc23)cc1 [Example 15, 3-((4-((4-(3-(3-isopropyl-1-(4-methoxyphenyl)-1H-pyrazol-5-yl)ureido)naphthalen-1-yl)oxy)pyridin-2-yl)amino)-5-methoxy-N-(2-morpholinoethyl)benzamide] | 3180 | 1.6 | 16 | −ve (−ve and +ve indicate that the value is below and above respectively, the no significant effect threshold, defined as 30% inhibition at 1 μg/mL at the time point indicated) | −ve (−ve and +ve indicate that the value is below and above respectively, the no significant effect threshold, defined as 30% inhibition at 1 μg/mL at the time point indicated) | 4 | 26.2 | 0.4 |
| CNC(=O)c1cccc(Nc2nccc(Oc3ccc(NC(=O)Nc4cc(C(C)(C)C)nn4-c4ccc(C)cc4)c4ccccc34)n2)c1 [Example 16, 3-((4-((4-(3-(3-(tert-butyl)-1-(p-tolyl)-1H-pyrazol-5-yl)ureido)naphthalen-1-yl)oxy)pyrimidin-2-yl)amino)-N-methylbenzamide] | 1400 | 1.7 | 1390 | −ve (−ve and +ve indicate that the value is below and above respectively, the no significant effect threshold, defined as 30% inhibition at 1 μg/mL at the time point indicated) | −ve (−ve and +ve indicate that the value is below and above respectively, the no significant effect threshold, defined as 30% inhibition at 1 μg/mL at the time point indicated) | 9 | 1.9 | 1.3 |
| CCCNC(=O)c1cccc(Nc2nccc(Oc3ccc(NC(=O)Nc4cc(C(C)(C)C)nn4-c4ccc(OC)cc4)c4ccccc34)n2)c1 [Example 17, 3-(4-(4-(3-(3-tert-butyl-1-(4-methoxyphenyl)-1H-pyrazol-5-yl)ureido)naphthalen-1-yloxy)pyrimidin-2-ylamino)-N-propylbenzamide] | 309 | 1.8 | 35 | −ve (−ve and +ve indicate that the value is below and above respectively, the no significant effect threshold, defined as 30% inhibition at 1 μg/mL at the time point indicated) | −ve (−ve and +ve indicate that the value is below and above respectively, the no significant effect threshold, defined as 30% inhibition at 1 μg/mL at the time point indicated) | 3 | 2.6 | 1.5 |
| Cc1ccc(-n2nc(C(C)(C)C)cc2NC(=O)Nc2ccc(Oc3ccnc(Nc4cccc(C(=O)NCCN(C)C)c4)n3)c3ccccc23)cc1 [Example 18, 3-((4-((4-(3-(3-(tert-butyl)-1-(p-tolyl)-1H-pyrazol-5-yl)ureido)naphthalen-1-yl)oxy)pyrimidin-2-yl)amino)-N-(2-(dimethylamino)ethyl)benzamide] | 295 | 1.8 | > 1440 | −ve (−ve and +ve indicate that the value is below and above respectively, the no significant effect threshold, defined as 30% inhibition at 1 μg/mL at the time point indicated) | −ve (−ve and +ve indicate that the value is below and above respectively, the no significant effect threshold, defined as 30% inhibition at 1 μg/mL at the time point indicated) | 7 | 2.3 | 1.5 |
| COc1ccc(-n2nc(C(C)(C)C)cc2NC(=O)Nc2ccc(Oc3ccnc(Nc4cccc(C(=O)NCCN5CCOCC5)c4)n3)c3ccccc23)cc1 [Example 21, 3-((4-((4-(3-(3-(tert-butyl)-1-(4-methoxyphenyl)-1H-pyrazol-5-yl)ureido)naphthalen-1-yl)oxy)pyrimidin-2-yl)amino)-N-(2-morpholinoethyl)benzamide] | 356 | 1.9 | 14 | −ve (−ve and +ve indicate that the value is below and above respectively, the no significant effect threshold, defined as 30% inhibition at 1 μg/mL at the time point indicated) | −ve (−ve and +ve indicate that the value is below and above respectively, the no significant effect threshold, defined as 30% inhibition at 1 μg/mL at the time point indicated) | 5 | 0.8 | 1.3 |
| Cc1ccc(-n2nc(C3(C)COC3)cc2NC(=O)Nc2ccc(Oc3ccnc(Nc4cccc(C(=O)NCCN5CCOCC5)c4)n3)c3ccccc23)cc1 [Example 22, 3-((4-((4-(3-(3-(3-methyloxetan-3-yl)-1-(p-tolyl)-1H-pyrazol-5-yl)ureido)naphthalen-1-yl)oxy)pyrimidin-2-yl)amino)-N-(2-morpholinoethyl)benzamide] | 930 | 1.3 | 292 | −ve (−ve and +ve indicate that the value is below and above respectively, the no significant effect threshold, defined as 30% inhibition at 1 μg/mL at the time point indicated) | −ve (−ve and +ve indicate that the value is below and above respectively, the no significant effect threshold, defined as 30% inhibition at 1 μg/mL at the time point indicated) | < 1 | 4.1 | 4.5 |
